PubChem BioAssay AID2060506 (Molecular Pharmacology Branch, DTP, NCI, 2025)

Test system: 598228-144-R-J1-PDC complex spheroid viability
Experiment: Anticancer human tumor 598228-144-R-J1-PDC patient-derived serous endometrial adenocarcinoma cell line growth inhibition [GQUAD]
Conditions: for IC50: curve of first compound; for viability, T/C: stronger effect = lower value
Outline: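 Tumor cells were grown as complex spheroids with HUVEC endothelial cells and mesenchymal stem cells as stroma. G-quadruplex stabilizers were combined with targeted agents over half-log dilutions from near the clinical Cmax, or from 10 microM.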

[1] = second compound 0.0316 µM, first compound 0.0316 µM
[2] = second compound 0.0316 µM, first compound 0.1 µM
[3] = second compound 0.0316 µM, first compound 0.316 µM
[4] = second compound 0.0316 µM, first compound 1 µM
[5] = second compound 0.0316 µM, first compound 3.16 µM
[6] = second compound 0.0316 µM, first compound 10 µM
[7] = second compound 0.1 µM, first compound 0.0316 µM
[8] = second compound 0.1 µM, first compound 0.1 µM
[9] = second compound 0.1 µM, first compound 0.316 µM
[10] = second compound 0.1 µM, first compound 1 µM
[11] = second compound 0.1 µM, first compound 3.16 µM
[12] = second compound 0.1 µM, first compound 10 µM
[13] = second compound 0.316 µM, first compound 0.0316 µM
[14] = second compound 0.316 µM, first compound 0.1 µM
[15] = second compound 0.316 µM, first compound 0.316 µM
[16] = second compound 0.316 µM, first compound 1 µM
[17] = second compound 0.316 µM, first compound 3.16 µM
[18] = second compound 0.316 µM, first compound 10 µM
[19] = second compound 1 µM, first compound 0.0316 µM
[20] = second compound 1 µM, first compound 0.1 µM
[21] = second compound 1 µM, first compound 0.316 µM
[22] = second compound 1 µM, first compound 1 µM
[23] = second compound 1 µM, first compound 3.16 µM
[24] = second compound 1 µM, first compound 10 µM
[25] = second compound 3.16 µM, first compound 0.0316 µM
[26] = second compound 3.16 µM, first compound 0.1 µM
[27] = second compound 3.16 µM, first compound 0.316 µM
[28] = second compound 3.16 µM, first compound 1 µM
[29] = second compound 3.16 µM, first compound 3.16 µM
[30] = second compound 3.16 µM, first compound 10 µM
[31] = second compound 10 µM, first compound 0.0316 µM
[32] = second compound 10 µM, first compound 0.1 µM
[33] = second compound 10 µM, first compound 0.316 µM
[34] = second compound 10 µM, first compound 1 µM
[35] = second compound 10 µM, first compound 3.16 µM
[36] = second compound 10 µM, first compound 10 µM
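Further: spheroids exposed to the agents for one week before reading.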
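Wherever viability, T/C is given: percent of vehicle DMSO control viability so 100% = untreated growth.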

For `COc1cc(C2c3cc4c(cc3C(OC3OC5COC(C)OC5C(O)C3O)C3COC(=O)C23)OCO4)cc(OC)c1O` (stereo unspecified) + CN(C)c1ccc(Nc2c3ccc(NC(=O)CCN4CCCC4)cc3nc3cc(NC(=O)CCN4CCCC4)ccc23)cc1, which IC50 (second compound 0.0316 µM) is on record?
The IC50 was 8170 nM.

What about the IC50 (second compound 0.1 µM) of the same molecule?
The IC50 was 5140 nM.

What about the IC50 (second compound 0.316 µM) of the same molecule?
The IC50 was 5390 nM.

And the IC50 (second compound 1 µM)?
Its IC50 is 898 nM.

What about the IC50 (second compound 3.16 µM) of the same molecule?
Its IC50 is 5140 nM.

What about the IC50 (second compound 10 µM) of the same molecule?
The IC50 was 471 nM.

What about the viability, T/C [1] of the same molecule?
Its viability, T/C is 114%.

And the viability, T/C [2]?
Its viability, T/C is 105%.

And the viability, T/C [3]?
Its viability, T/C is 75.5%.

What about the viability, T/C [4] of the same molecule?
The viability, T/C was 65.5%.

What about the viability, T/C [5] of the same molecule?
The viability, T/C was 71.5%.

And the viability, T/C [6]?
Its viability, T/C is 42.1%.

What about the viability, T/C [7] of the same molecule?
Its viability, T/C is 102%.

And the viability, T/C [8]?
The viability, T/C was 84.2%.

And the viability, T/C [9]?
Its viability, T/C is 78.6%.

And the viability, T/C [10]?
Its viability, T/C is 61.3%.

And the viability, T/C [11]?
Its viability, T/C is 61.5%.

What about the viability, T/C [12] of the same molecule?
The viability, T/C was 40.3%.

What about the viability, T/C [13] of the same molecule?
The viability, T/C was 103%.

What about the viability, T/C [14] of the same molecule?
The viability, T/C was 95%.

What about the viability, T/C [15] of the same molecule?
The viability, T/C was 70.8%.

And the viability, T/C [16]?
Its viability, T/C is 61.6%.

What about the viability, T/C [17] of the same molecule?
The viability, T/C was 65.4%.

And the viability, T/C [18]?
The viability, T/C was 39.6%.

And the viability, T/C [19]?
Its viability, T/C is 93.6%.

And the viability, T/C [20]?
Its viability, T/C is 114%.

And the viability, T/C [21]?
Its viability, T/C is 71.3%.

And the viability, T/C [22]?
The viability, T/C was 55.9%.

What about the viability, T/C [23] of the same molecule?
The viability, T/C was 54.9%.

What about the viability, T/C [24] of the same molecule?
Its viability, T/C is 32.5%.

What about the viability, T/C [25] of the same molecule?
Its viability, T/C is 95%.

And the viability, T/C [26]?
Its viability, T/C is 75.6%.

What about the viability, T/C [27] of the same molecule?
The viability, T/C was 80%.

What about the viability, T/C [28] of the same molecule?
Its viability, T/C is 56.4%.

And the viability, T/C [29]?
The viability, T/C was 70.3%.

What about the viability, T/C [30] of the same molecule?
Its viability, T/C is 35.7%.

And the viability, T/C [31]?
The viability, T/C was 92.9%.

What about the viability, T/C [32] of the same molecule?
The viability, T/C was 71.8%.

And the viability, T/C [33]?
The viability, T/C was 53%.

What about the viability, T/C [34] of the same molecule?
Its viability, T/C is 40.7%.

What about the viability, T/C [35] of the same molecule?
Its viability, T/C is 60.3%.

And the viability, T/C [36]?
Its viability, T/C is 34.9%.

How did the IC50 (second compound 0.0316 µM) turn out when `COc1cccc2c1C(=O)c1c(O)c3c(c(O)c1C2=O)CC(O)(C(=O)CO)CC3OC1CC(N)C(O)C(C)O1` (stereo unspecified) + CN(C)c1ccc(Nc2c3ccc(NC(=O)CCN4CCCC4)cc3nc3cc(NC(=O)CCN4CCCC4)ccc23)cc1 was run?
The IC50 was 547 nM.

What about the IC50 (second compound 0.1 µM) of the same molecule?
Its IC50 is 586 nM.

And the IC50 (second compound 0.316 µM)?
Its IC50 is 617 nM.

And the IC50 (second compound 1 µM)?
Its IC50 is 655 nM.

What about the IC50 (second compound 3.16 µM) of the same molecule?
The IC50 was 774 nM.

And the IC50 (second compound 10 µM)?
The IC50 was 536 nM.

And the viability, T/C [1]?
Its viability, T/C is 79.1%.

And the viability, T/C [2]?
The viability, T/C was 83.3%.

And the viability, T/C [3]?
The viability, T/C was 66.6%.

What about the viability, T/C [4] of the same molecule?
Its viability, T/C is 31%.

And the viability, T/C [5]?
Its viability, T/C is 1.02%.

And the viability, T/C [6]?
Its viability, T/C is 0.57%.

What about the viability, T/C [7] of the same molecule?
The viability, T/C was 95.5%.

What about the viability, T/C [8] of the same molecule?
The viability, T/C was 84.8%.

And the viability, T/C [9]?
The viability, T/C was 71%.

What about the viability, T/C [10] of the same molecule?
The viability, T/C was 33.5%.

And the viability, T/C [11]?
Its viability, T/C is 2.25%.

And the viability, T/C [12]?
Its viability, T/C is 0.29%.

What about the viability, T/C [13] of the same molecule?
The viability, T/C was 96.1%.

What about the viability, T/C [14] of the same molecule?
The viability, T/C was 73.2%.

What about the viability, T/C [15] of the same molecule?
Its viability, T/C is 68.9%.

What about the viability, T/C [16] of the same molecule?
The viability, T/C was 42.2%.

What about the viability, T/C [17] of the same molecule?
Its viability, T/C is 3.61%.

And the viability, T/C [18]?
Its viability, T/C is 0.89%.

What about the viability, T/C [19] of the same molecule?
Its viability, T/C is 87.1%.

And the viability, T/C [20]?
The viability, T/C was 73.7%.

And the viability, T/C [21]?
The viability, T/C was 58.4%.

And the viability, T/C [22]?
Its viability, T/C is 51.9%.

What about the viability, T/C [23] of the same molecule?
Its viability, T/C is 1.46%.

And the viability, T/C [24]?
The viability, T/C was 1.05%.

And the viability, T/C [25]?
The viability, T/C was 81.6%.

And the viability, T/C [26]?
The viability, T/C was 80.1%.

What about the viability, T/C [27] of the same molecule?
The viability, T/C was 71.6%.

What about the viability, T/C [28] of the same molecule?
The viability, T/C was 44.3%.

What about the viability, T/C [29] of the same molecule?
The viability, T/C was 1.7%.

And the viability, T/C [30]?
Its viability, T/C is 0.36%.

What about the viability, T/C [31] of the same molecule?
Its viability, T/C is 59.8%.

What about the viability, T/C [32] of the same molecule?
The viability, T/C was 64.5%.

And the viability, T/C [33]?
The viability, T/C was 47.7%.

And the viability, T/C [34]?
The viability, T/C was 42.3%.

What about the viability, T/C [35] of the same molecule?
Its viability, T/C is 1.22%.

And the viability, T/C [36]?
The viability, T/C was 0.77%.

With `O=c1[nH]cc(F)c(=O)[nH]1` + CN(C)c1ccc(Nc2c3ccc(NC(=O)CCN4CCCC4)cc3nc3cc(NC(=O)CCN4CCCC4)ccc23)cc1 as the molecule, how does the IC50 (second compound 0.0316 µM) read?
Its IC50 is greater than 10000 nM.

And the IC50 (second compound 0.1 µM)?
Its IC50 is greater than 10000 nM.

What about the IC50 (second compound 0.316 µM) of the same molecule?
The IC50 was greater than 10000 nM.

And the IC50 (second compound 1 µM)?
The IC50 was greater than 10000 nM.

And the IC50 (second compound 3.16 µM)?
Its IC50 is greater than 10000 nM.

And the IC50 (second compound 10 µM)?
The IC50 was greater than 10000 nM.

And the viability, T/C [1]?
The viability, T/C was 121%.

What about the viability, T/C [2] of the same molecule?
Its viability, T/C is 95%.

And the viability, T/C [3]?
The viability, T/C was 102%.

And the viability, T/C [4]?
Its viability, T/C is 91.3%.

What about the viability, T/C [5] of the same molecule?
The viability, T/C was 89.8%.

And the viability, T/C [6]?
Its viability, T/C is 90.8%.

And the viability, T/C [7]?
The viability, T/C was 104%.

And the viability, T/C [8]?
The viability, T/C was 106%.

And the viability, T/C [9]?
Its viability, T/C is 132%.

And the viability, T/C [10]?
The viability, T/C was 100%.

And the viability, T/C [11]?
The viability, T/C was 96.8%.

And the viability, T/C [12]?
Its viability, T/C is 65.5%.

And the viability, T/C [13]?
The viability, T/C was 103%.

What about the viability, T/C [14] of the same molecule?
The viability, T/C was 105%.

And the viability, T/C [15]?
Its viability, T/C is 104%.

What about the viability, T/C [16] of the same molecule?
Its viability, T/C is 108%.

And the viability, T/C [17]?
Its viability, T/C is 104%.

And the viability, T/C [18]?
The viability, T/C was 97%.

And the viability, T/C [19]?
Its viability, T/C is 107%.

And the viability, T/C [20]?
Its viability, T/C is 112%.

What about the viability, T/C [21] of the same molecule?
Its viability, T/C is 106%.

And the viability, T/C [22]?
Its viability, T/C is 99.1%.

And the viability, T/C [23]?
Its viability, T/C is 111%.

What about the viability, T/C [24] of the same molecule?
Its viability, T/C is 81.5%.

And the viability, T/C [25]?
Its viability, T/C is 81%.

What about the viability, T/C [26] of the same molecule?
Its viability, T/C is 113%.

What about the viability, T/C [27] of the same molecule?
The viability, T/C was 127%.

What about the viability, T/C [28] of the same molecule?
Its viability, T/C is 98.5%.

And the viability, T/C [29]?
Its viability, T/C is 125%.

And the viability, T/C [30]?
The viability, T/C was 61.8%.

And the viability, T/C [31]?
The viability, T/C was 82.7%.

What about the viability, T/C [32] of the same molecule?
Its viability, T/C is 71.3%.

And the viability, T/C [33]?
The viability, T/C was 95.4%.

What about the viability, T/C [34] of the same molecule?
Its viability, T/C is 88.7%.

And the viability, T/C [35]?
Its viability, T/C is 88.5%.

What about the viability, T/C [36] of the same molecule?
The viability, T/C was 64%.
